Measurements from US6496728B2, “Methods for extracting substances using alternating current” (University of Utah Research Foundation, priority 2000, dated 2002).

Tests used:
[1] = Constant current DC iontophoretic transport across human epidermal membrane in side-by-side diffusion cell
Method: Iontophoretic transport studies were carried out in a side-by-side two-chamber diffusion cell (diffusional surface area of around 0.8 cm^2 and chamber volume of 2 mL) with HEM at 37° C. The apparent permeability coefficients (P) in each experiment were calculated by: [formula]
where A is the membrane surface area, t is time, Q is the amount of permeant transported into the receiver chamber, and CD is the concentration of permeant in the donor chamber. The pH of the solutions in the donor and receiver chambers was checked after each iontophoresis run to detect possible water hydrolysis.
Constant current DC transport experiments were carried out at the current level of 0.13 mA/cm^2 using a constant current iontophoretic device (phoresor II Auto, Model No. PM 850, Iomed, Inc., Salt Lake City, Utah) with Ag—AgCl electrodes. […] HEM resistance during iontophoresis was measured by monitoring the electrical potential drop across the membrane using two flexible Luggin capillaries which were inserted into the donor and receiver compartments of the diffusion cells. Each of the Luggin capillaries contained a calomel electrode connected to a voltmeter. The HEM resistance could be determined during iontophoresis according the output current level and the voltmeter readings.
A trace amount of [^14C] […] One ml of sample was taken from the receiver chamber approximately every 30 minutes and replaced with the fresh PBS. A 10 μl sample was taken from the donor chamber every hour. Samples were mixed with 10 ml scintillation cocktail (Ultima Gold™, Packard Instrument Co., Meriden, Conn.) and assayed by a dual-labeled liquid scintillation counter (Parkard TriCarb™ Model 1900 TR Liquid Scintillation Analyzer).

[2] = AC + DC offset iontophoretic transport across human epidermal membrane in side-by-side diffusion cell; type: in vitro ADME
Description: The output AC voltage was manually adjusted between 3 to 8 volts to keep the skin resistance at 2 kΩ (±10%) and the DC offset value was kept constant at 0.25 V during the entire period of the experiment. The same permeants and sampling protocol were used as described in the Constant Current Session.

[3] = AC without DC offset (AC + passive) transport across human epidermal membrane in side-by-side diffusion cell; type: in vitro ADME; settings: target skin resistance 2 kΩ; for Papp: all data points from 100 to 330 min
Description: The same protocol was used to reduce the skin electrical resistance to 2 kΩ as described in the AC+DC Offset method. […] Permeants and sampling protocol were the same as in the Constant Current and AC+DC Offset sessions as described above.

[4] = 0.13 mA/cm^2 DC, data points between 100 and 330 minutes
[5] = AC + DC, 50 Hz, DC offset 250 mV, target skin resistance 2 kΩ, data points between 100 and 330 minutes

| Structure (SMILES) | Slope of normalized mannitol flux versus time (linear regression) [1, 4] | Rate of change of mannitol flux, fold higher with constant current DC than with AC without DC Offset ([1]; constant current DC versus AC without DC Offset) [fold] | Rate of change of mannitol flux, fold higher with constant current DC than with AC+DC Offset ([1]; constant current DC versus AC+DC Offset) [fold] | Papp ([1]; human) [×10⁻⁶ cm/s] | Papp at 180 min ([1]; human) [×10⁻⁶ cm/s] | Slope of normalized mannitol flux versus time (linear regression) [2, 5] | Rate of change of mannitol flux, lower with AC+DC Offset method compared with AC without DC Offset method ([2]; AC+DC Offset versus AC without DC Offset) [%] | Papp ([2]; human, AC (50 Hz) with 0.25 V DC offset, target skin resistance 2 kΩ, all data points from 100 to 330 min, 36 points (6 skin samples), read-out: Mannitol permeability coefficient, mean) [×10⁻⁶ cm/s] | Papp at 180 min ([2]; human, AC (50 Hz) with 0.25 V DC offset, target skin resistance 2 kΩ, one time point (180 min), 6 samples, read-out: Mannitol permeability coefficient, mean) [×10⁻⁶ cm/s] | Slope of normalized mannitol flux versus time (linear regression) ([3]; AC 50 Hz, no DC offset, data points between 100 and 330 minutes) | Papp ([3]; human, AC (50 Hz) w/o DC offset, 28 points (4 skin samples), read-out: Mannitol permeability coefficient, mean) [×10⁻⁶ cm/s] | Papp at 180 min ([3]; human, AC (50 Hz) w/o DC offset, one time point (180 min), 4 samples, read-out: Mannitol permeability coefficient, mean) [×10⁻⁶ cm/s] | Slope of normalized TEA^+ flux versus time (linear regression) [1, 4] | Slope of normalized TEA^+ flux versus time (linear regression) [2, 5] | Papp ([3]; human, AC (50 Hz) w/o DC offset, 28 points (4 samples), read-out: TEA^+ permeability coefficient, mean) [×10⁻⁶ cm/s] |
| --- | --- | --- | --- | --- | --- | --- | --- | --- | --- | --- | --- | --- | --- | --- | --- |
| OC[C@@H](O)[C@@H](O)[C@H](O)[C@H](O)CO [Mannitol, mannitol] | 4 × 10^−10 cm sec^−1 min^−1 | 5.7 | 10 | 0.16 | 0.15 | 4 × 10^−11 cm sec^−1 min^−1 | 57 | 0.16 | 0.17 | 7 × 10^−11 cm sec^−1 min^−1 | 0.0985 | 0.101 |  |  |  |
| CC[N+](CC)(CC)CC.[Br-] [TEA^+, tetraethylammonium bromide] |  |  |  |  |  |  |  |  |  |  |  |  | 6 × 10^−9 cm sec^−1 min^−1 | 2 × 10^−9 cm sec^−1 min^−1 | 1.08 |
